This is an account of results in patent US5792767A, “Bicyclic substituted hexahydrobenz [e] isoindole alpha-1 adrenergic antagonists” (priority 1995, dated 1998).

In assay [1] the target is T1, α-1A adrenoceptor (rat vas deferens) (Rattus norvegicus, UniProt P43140).
T1 construct: PE-induced contraction of rat vas deferens; from tissue; host or cells: isolated rat vas deferens
T1 sequence (P43140 1-466): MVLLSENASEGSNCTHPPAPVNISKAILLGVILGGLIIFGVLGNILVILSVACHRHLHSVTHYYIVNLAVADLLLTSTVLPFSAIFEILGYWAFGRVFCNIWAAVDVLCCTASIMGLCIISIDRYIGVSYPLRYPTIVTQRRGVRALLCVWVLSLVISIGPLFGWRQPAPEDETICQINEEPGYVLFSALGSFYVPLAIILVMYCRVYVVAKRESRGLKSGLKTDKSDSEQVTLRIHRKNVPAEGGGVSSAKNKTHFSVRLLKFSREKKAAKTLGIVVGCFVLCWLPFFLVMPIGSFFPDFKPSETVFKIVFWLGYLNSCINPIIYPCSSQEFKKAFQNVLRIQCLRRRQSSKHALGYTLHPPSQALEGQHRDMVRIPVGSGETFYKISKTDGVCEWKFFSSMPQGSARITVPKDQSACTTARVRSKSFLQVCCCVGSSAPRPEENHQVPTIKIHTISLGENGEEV
The assay can be described thus: Functional antagonism of phenylephrine-induced contraction of rat vas deferens. Type of assay: cell-based. As to conditions: vs phenylephrine-induced contraction, Schild plot; read-out: pA2 Rat Vas Deferens [α-1A] (converted). From the text: (§1) Functional assays indicative of pharmacologically defined α-1 adrenoceptors were used to further characterize compounds. Inhibition of phenylephrine (PE)-induced contraction of canine prostate smooth muscle can be correlated with α-1A adrenoceptor activation. […] For each of these models, agonist dose response curves were repeated against increasing concentrations of test agent to derive a Schild plot [log ([…]) against log (molarity of test agent)] to determine the pA2.

The target of assay [2] is T2, α-1B adrenoceptor (rat spleen) (Rattus norvegicus, UniProt P15823).
T2 construct: PE-induced contraction of rat spleen; from tissue; host or cells: isolated rat spleen
T2 sequence (P15823 1-515): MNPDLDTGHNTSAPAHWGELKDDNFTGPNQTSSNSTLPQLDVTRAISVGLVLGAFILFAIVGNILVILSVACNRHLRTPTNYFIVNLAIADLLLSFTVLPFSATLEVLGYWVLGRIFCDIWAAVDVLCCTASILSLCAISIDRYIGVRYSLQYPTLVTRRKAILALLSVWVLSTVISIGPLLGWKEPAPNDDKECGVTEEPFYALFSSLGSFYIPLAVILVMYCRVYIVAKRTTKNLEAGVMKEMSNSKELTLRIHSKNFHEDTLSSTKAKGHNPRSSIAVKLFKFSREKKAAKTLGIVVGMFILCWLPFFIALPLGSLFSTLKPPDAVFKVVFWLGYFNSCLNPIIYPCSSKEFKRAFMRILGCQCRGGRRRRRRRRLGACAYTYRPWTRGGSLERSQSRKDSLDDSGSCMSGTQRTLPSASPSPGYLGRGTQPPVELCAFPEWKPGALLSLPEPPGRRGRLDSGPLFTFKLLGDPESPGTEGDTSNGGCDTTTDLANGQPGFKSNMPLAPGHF
In words: Functional antagonism of phenylephrine-induced contraction of rat spleen. As to conditions: vs phenylephrine-induced contraction, Schild plot; for Kb: read-out: pA2 Rat Spleen [α-1B] (converted). In kind it is cell-based.
Text: as §1

In assay [3] the target is T3, α-1A adrenoceptor (dog prostate).
T3 construct: from tissue; host or cells: canine prostate strips
T3 sequence (P35348 whole entry): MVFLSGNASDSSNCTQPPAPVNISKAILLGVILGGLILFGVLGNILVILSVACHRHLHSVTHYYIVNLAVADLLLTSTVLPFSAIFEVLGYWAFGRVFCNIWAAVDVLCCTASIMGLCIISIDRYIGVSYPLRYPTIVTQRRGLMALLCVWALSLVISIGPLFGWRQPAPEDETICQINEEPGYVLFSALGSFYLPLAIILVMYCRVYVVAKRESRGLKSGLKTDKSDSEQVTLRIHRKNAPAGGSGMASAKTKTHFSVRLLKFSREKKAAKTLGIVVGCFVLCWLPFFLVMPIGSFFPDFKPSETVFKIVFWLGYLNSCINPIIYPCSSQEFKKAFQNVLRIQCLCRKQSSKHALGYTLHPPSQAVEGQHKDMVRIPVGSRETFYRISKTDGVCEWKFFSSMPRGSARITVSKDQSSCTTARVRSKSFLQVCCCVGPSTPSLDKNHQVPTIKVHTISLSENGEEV
The assay can be described thus: Functional antagonism of phenylephrine-induced contraction of canine prostate strips. In kind it is cell-based, dog (canine). As to conditions: vs phenylephrine-induced contraction, Schild plot; read-out: pA2 Dog Prostate [α-1A] (converted).
Text: Canine prostate strips were used in vitro as previously described (Hieble, J. P., Boyce, A. J. and Caine, M., Fed. Proc., 45: 2609-2614 (1986)), to determine antagonist potencies against phenylephrine-induced contractions.
as §1

Structures are written as SMILES. Structures can show the parent of a compound that is named as a salt.

For `COc1cccc2c1CC[C@H]1CN(CCn3c(=O)[nH]c4c(C)csc4c3=O)C[C@@H]21` (relative stereo) [Example 2, hydrochloride], the Kb in assay [1] was 3.98 nM; in assay [2], 6.92 nM; in assay [3], 0.692 nM.
As to `COc1cccc2c1CC[C@H]1CN(CCn3c(=O)[nH]c4sccc4c3=O)C[C@@H]21` (relative stereo) [Example 3, hydrochloride], the Kb was 4.68 nM in assay [1], 12.3 nM in assay [2] and 2.09 nM in assay [3].
In the case of `COc1cccc2c1CC[C@H]1CN(CCn3c(=O)[nH]c4ccsc4c3=O)C[C@@H]21` (relative stereo) [Example 5, hydrochloride], the Kb was 6.46 nM in assay [1], 4.37 nM in assay [2] and 0.692 nM in assay [3].
Taken in the same sequence, the figures for `COc1cccc2c1CC[C@H]1CN(CCn3c(=O)[nH]c4cscc4c3=O)C[C@@H]21` (relative stereo) [Example 8, 3-[2-(cis-6-Methoxy-2,3,3a,4,5,9b-hexahydro-[1H]-benz[e]isoindol-1-yl)ethyl]-thieno[3,4d]pyrimidine-2,4(1H,3H)-dione hydrochloride] were 3.02 nM, 5.5 nM and 0.457 nM.
On the same counts, the results for `COc1cccc2c1CC[C@H]1CN(CCn3c(=O)[nH]c4c(OC)cccc4c3=O)C[C@@H]21` (relative stereo) [Example 9, 3-[2-(cis-6-Methoxy-2,3,3a,4,5,9b-hexahydro-[1H]-benz[e]isoindol-1-yl)ethyl]-8-methoxy-quinazoline-2,4(1H,3H)-dione hydrochloride] are 2.4 nM, 8.91 nM and 0.407 nM.
In the case of `COc1cc2[nH]c(=O)n(CCN3C[C@@H]4CCc5c(OC)cccc5[C@@H]4C3)c(=O)c2cc1OC` (relative stereo) [Example 10, hydrochloride], the Kb in assay [2] is 129 nM.
Regarding `COc1cccc2c1CC[C@H]1CN(CCn3c(=O)[nH]c4cccc(C)c4c3=O)C[C@@H]21` (relative stereo) [Example 12, hydrochloride], the Kb in assay [1] is 8.51 nM; in assay [2] it was 6.76 nM; in assay [3], 21.4 nM.
For the molecule `COc1cc2ncn(CCN3C[C@@H]4CCc5c(OC)cccc5[C@@H]4C3)c(=O)c2cc1OC` (relative stereo) [Example 33, 3-[2-(cis-6-Methoxy-2,3,3a,4,5,9b-hexahydro-[1H]-benz[e]isoindol-1-yl)ethyl]-6,7-dimethoxy-quinazoline-4(3H)-one dihydrochloride], the figures for the Kb in assay [1] and in assay [2] were 1.12 nM and 20.4 nM, respectively.
In the case of `COc1cccc2c1CC[C@H]1CN(CCn3c(=O)[nH]c4sccc4c3=O)C[C@@H]21` [Example 13, hydrochloride], the results for the Kb in assay [1], in assay [2] and in assay [3] were 7.59 nM, 4.27 nM and 0.851 nM, respectively.
For `COc1cc2[nH]c(=O)n(CCN3C[C@@H]4CCc5c(OC)cccc5[C@@H]4C3)c(=O)c2cc1OC` [Example 39, hydrochloride], the “pA2 Rat Spleen [α-1B]” value in assay [2] is listed as 7.52.
`COc1cc2ncn(CCN3C[C@@H]4CCc5c(OC)cccc5[C@@H]4C3)c(=O)c2cc1OC` [Example 42, dihydrochloride]: the figures for the Kb in assay [1] and in assay [2] were 5.75 nM and 39.8 nM, respectively.
For `COc1cccc2c1CC[C@H]1CN(CCn3c(=O)[nH]c4c(C(C)C)c(OC)sc4c3=O)C[C@@H]21` [Example 65, -[2-((3aR,9bR)-cis-6-Methoxy-2,3,3a,4,5,9b-hexahydro-[1H]-benz[e]isoindol-1-yl)ethyl]-6-methoxy-7-isopropylthieno [3,2-d]pyrimidine-2,4(1H,3H)-dione hydrochloride], in assay [3], the Kb was 2.34 nM.
As for `COc1cccc2c1CC[C@H]1CN(CCn3c(=O)[nH]c4c(C)c(C)cnc4c3=O)C[C@@H]21` [Example 66, dihydrochloride], the Kb in assay [3] was 1.15 nM.
Same read-out and setting: next, `COc1cc2[nH]c(=O)n(CCCCN3C[C@@H]4CCc5cccc(OC)c5[C@@H]4C3)c(=O)c2cc1OC` [Example 67, hydrochloride]: 4.68 nM; `COC(=O)c1ccc2c(=O)n(CCN3C[C@@H]4CCc5c(OC)cccc5[C@@H]4C3)c(=O)[nH]c2c1` [Example 69, hydrochloride]: 0.575 nM; `COc1cccc2c1CC[C@H]1CN(CCn3c(=O)[nH]c4cc(C(=O)O)ccc4c3=O)C[C@@H]21` [Example 70, hydrochloride]: 1.12 nM.
The same measure, in the same setting: next, `CCOC(=O)c1ccc2c(=O)n(CCN3C[C@@H]4CCc5c(OC)cccc5[C@@H]4C3)c(=O)[nH]c2c1` [Example 71, hydrochloride]: 3.55 nM; `COc1cccc2c1CC[C@H]1CN(CCn3c(=O)[nH]c4cc(C(=O)OC(C)C)ccc4c3=O)C[C@@H]21` [Example 73, hydrochloride]: 1.23 nM; `COc1cccc2c1CC[C@H]1CN(CCn3c(=O)[nH]c4cc([N+](=O)[O-])ccc4c3=O)C[C@@H]21` [Example 74, hydrochloride]: 1.7 nM.
Still for that read-out and setting: with `COc1cccc2c1CC[C@H]1CN(CCn3c(=O)[nH]c4cc(NC(C)=O)ccc4c3=O)C[C@@H]21` [Example 75, 3-[2-((3aR,9bR)cis-6-Methoxy-2,3,3a,4,5,9b-hexahydro-[1H]-benz[e]isoindolyl-1-yl)ethyl]-7-acetamidoquinazoline-2,4(1H,3H)-dione hydrochloride] the figure was 0.661 nM; with `COc1cccc2c1CC[C@H]1CN(CCn3c(=O)[nH]c4cc(NS(C)(=O)=O)ccc4c3=O)C[C@@H]21` [Example 76, 3-[2-((3aR,9bR)cis-6-Methoxy-2,3,3a,4,5,9b-hexahydro-1WH-benz[e]isoindol-1-yl)lethyl]-7-methanesulfamlquinazoline-2,4(1H,3H)-dione hydrochloride], 1.86 nM.
As for `COc1cccc2c1CC[C@H]1CN(CCn3c(=O)[nH]c4c(C)c(OC)ccc4c3=O)C[C@@H]21` [Example 77, 3-[2-((3aR,9bR)cis-6-Methoxy-2,3,3a,4,59b-hexahydro-[1H]-benz[e]isoindol-1-yl)ethyl]-7-methoxy-8-methyl-quinazoline-2(1H,3H)-dione hydrochloride], the Kb in assay [1] was 0.479 nM; in assay [2], 2.95 nM; in assay [3] it was 0.398 nM.
For the molecule `COc1cccc2c1CC[C@H]1CN(CCn3c(=O)[nH]c4ccccc4c3=O)C[C@@H]21` [Example 79, hydrochloride], the Kb in assay [3] was 0.977 nM.
Still for that read-out and setting: with `COc1cccc2c1CC[C@H]1CN(CCn3c(=O)[nH]c4c(-c5ccccc5C)csc4c3=O)C[C@@H]21` [Example 84, hydrochloride] the figure was 8.13 nM; with `COc1ccccc1-c1csc2c(=O)n(CCN3C[C@@H]4CCc5c(OC)cccc5[C@@H]4C3)c(=O)[nH]c12` [Example 85, 3-[2-((3aR,9bR)cis-6-Methoxy-2,3,3a,4,5,9b-hexahydro-[1H]-benz[e]isoindol-1-yl)ethyl]-7-(2-methoxyphenyl)thieno[3.2-d]pyrimidine-2,4(1H,3H)-dione hydrochloride], 2.82 nM.
Same read-out and setting: with `COc1cccc2c1CC[C@H]1CN(CCn3c(=O)[nH]c4nccnc4c3=O)C[C@@H]21` [Example 87, 3-[2-((3aR,9bR)cis-6-Methoxy-2,3 3a,4,5,9b-hexahydro-[1H]-benz[e]isoindol-1-yl)ethyl]-2,4pteridinedione hydrochloride] the figure was 1.29 nM; with `COc1cccc2c1CC[C@H]1CN(CCn3c(=O)[nH]c4ncncc4c3=O)C[C@@H]21` [Example 88, 3-[2-((3aR,9bR)cis-6-Methoxy-2,3,3a,4,5,9b-hexahydro-[1H]-benz[e]isoindol-1-yl)ethyl]-p-rimidino[4,5-d]pyrimidine-2,4(1H,3H)-dione hydrochloride], 1.86 nM.
